Measured values: PMC5218480 (PLoS ONE, 2017)

Test system: MV-4-11 cells
Test: Gene expression microarray analysis (Affymetrix PrimeView) and GSEA
Format: cell-based, human
Set-up: RFU PODN (11730768_x_at) / Fold change /veh PODN (11730768_x_at) / RFU LINC00158 (11744669_a_at) / Fold change /veh LINC00158 (11744669_a_at) / RFU DUSP10 (11751237_a_at) / Fold change /veh DUSP10 (11751237_a_at) / RFU ID3 (11757404_x_at) / Fold change /veh ID3 (11757404_x_at) / RFU PLEKHG5 (11737974_s_at) / Fold change /veh PLEKHG5 (11737974_s_at) / RFU LRRC4B (11730491_at) / Fold change /veh LRRC4B (11730491_at) / RFU GIMAP4 (11747438_a_at) / Fold change /veh GIMAP4 (11747438_a_at) / RFU KRT8 (11758183_x_at) / Fold change /veh KRT8 (11758183_x_at) / RFU CNN1 (11734310_a_at) / Fold change /veh CNN1 (11734310_a_at) / RFU VPS37D (11726825_at) / Fold change /veh VPS37D (11726825_at) / RFU C10orf10 (11716522_x_at) / Fold change /veh C10orf10 (11716522_x_at) / RFU KIR2DL2 /// KIR2DL4 /// KIR2DL5A /// KIR2DL5B /// KIR2DS1 /// KIR2DS2 /// KIR2DS3 /// KIR2DS4 /// KIR3DL3 /// KIR3DL3 /// KIR3DS1 (11738374_at) / Fold change /veh KIR2DL2 /// KIR2DL4 /// KIR2DL5A /// KIR2DL5B /// KIR2DS1 /// KIR2DS2 /// KIR2DS3 /// KIR2DS4 /// KIR3DL3 /// KIR3DL3 /// KIR3DS1 (11738374_at) / RFU C1QL1 (11718748_at) / Fold change /veh C1QL1 (11718748_at) / RFU TMPRSS4 (11747572_a_at) / Fold change /veh TMPRSS4 (11747572_a_at) / RFU HAMP (11756126_x_at) / Fold change /veh HAMP (11756126_x_at) / RFU RNFT2 (11725882_a_at) / Fold change /veh RNFT2 (11725882_a_at) / RFU NR4A2 (11747474_a_at) / Fold change /veh NR4A2 (11747474_a_at) / RFU ABCC12 (11746883_a_at) / Fold change /veh ABCC12 (11746883_a_at) / RFU TMEM136 (11760407_x_at) / Fold change /veh TMEM136 (11760407_x_at) / RFU CLDN22 /// WWC2 (11732394_at) / Fold change /veh CLDN22 /// WWC2 (11732394_at) / RFU HLA-DPB1 (11760878_x_at) / Fold change /veh HLA-DPB1 (11760878_x_at) / RFU SPINT1 (11716480_a_at) / Fold change /veh SPINT1 (11716480_a_at) / RFU GAP43 (11754022_s_at) / Fold change /veh GAP43 (11754022_s_at) / RFU A4GNT (11735810_at) / Fold change /veh A4GNT (11735810_at) / RFU PRB3 (11715151_x_at) / Fold change /veh PRB3 (11715151_x_at) / RFU TUBB4B (11761932_at) / Fold change /veh TUBB4B (11761932_at) / RFU CAPN14 (11732068_a_at) / Fold change /veh CAPN14 (11732068_a_at) / RFU TMCC2 (11721928_a_at) / Fold change /veh TMCC2 (11721928_a_at) / RFU IRGQ (11745062_a_at) / Fold change /veh IRGQ (11745062_a_at) / RFU FAM174B (11720279_a_at) / Fold change /veh FAM174B (11720279_a_at) / RFU TMPRSS4 (11748680_a_at) / Fold change /veh TMPRSS4 (11748680_a_at) / RFU FAM212B (11763350_a_at) / Fold change /veh FAM212B (11763350_a_at) / RFU PLEKHG5 (11743358_a_at) / Fold change /veh PLEKHG5 (11743358_a_at) / RFU ZSCAN30 (11745921_a_at) / Fold change /veh ZSCAN30 (11745921_a_at) / RFU CMKLR1 (11741424_a_at) / Fold change /veh CMKLR1 (11741424_a_at) / RFU LOC101060620 /// MAPK8IP1 (11723275_at) / Fold change /veh LOC101060620 /// MAPK8IP1 (11723275_at) / RFU SPTSSB (11747773_x_at) / Fold change /veh SPTSSB (11747773_x_at) / RFU PRSS12 (11739890_at) / Fold change /veh PRSS12 (11739890_at) / RFU BIN1 (11741810_x_at) / Fold change /veh BIN1 (11741810_x_at) / RFU WNT11 (11732464_a_at) / Fold change /veh WNT11 (11732464_a_at) / RFU C10orf10 (11716521_a_at) / Fold change /veh C10orf10 (11716521_a_at) / RFU C5orf56 (11738089_at) / Fold change /veh C5orf56 (11738089_at) / RFU CYB561 (11721691_x_at) / Fold change /veh CYB561 (11721691_x_at) / RFU ANKRD19P (11752326_a_at) / Fold change /veh ANKRD19P (11752326_a_at) / RFU OR2T12 /// OR2T33 /// OR2T8 (11738714_s_at) / Fold change /veh OR2T12 /// OR2T33 /// OR2T8 (11738714_s_at) / RFU VCAN (11748164_a_at) / Fold change /veh VCAN (11748164_a_at) / RFU JSRP1 (11732532_at) / Fold change /veh JSRP1 (11732532_at) / RFU KRTAP10-11 (11738290_x_at) / Fold change /veh KRTAP10-11 (11738290_x_at) / RFU MYO3A (11730013_a_at) / Fold change /veh MYO3A (11730013_a_at) / RFU EBF3 (11725865_a_at) / Fold change /veh EBF3 (11725865_a_at) / RFU CAMK2N1 (11719241_x_at) / Fold change /veh CAMK2N1 (11719241_x_at) / RFU C5orf56 (11738088_a_at) / Fold change /veh C5orf56 (11738088_a_at) / RFU OLFML3 (11715873_a_at) / Fold change /veh OLFML3 (11715873_a_at) / RFU LOC100653217 /// NTM (11731650_a_at) / Fold change /veh LOC100653217 /// NTM (11731650_a_at) / RFU MAPK11 (11762145_a_at) / Fold change /veh MAPK11 (11762145_a_at) / RFU FIZ1 (11724087_x_at) / Fold change /veh FIZ1 (11724087_x_at) / RFU OASL (11726364_x_at) / Fold change /veh OASL (11726364_x_at) / RFU SOX15 (11748057_x_at) / Fold change /veh SOX15 (11748057_x_at) / RFU CD79A (11719716_a_at) / Fold change /veh CD79A (11719716_a_at) / RFU HIST1H1D (11736915_at) / Fold change /veh HIST1H1D (11736915_at) / RFU CASKIN2 (11723855_a_at) / Fold change /veh CASKIN2 (11723855_a_at) / RFU LOC730098 (11760151_x_at) / Fold change /veh LOC730098 (11760151_x_at) / RFU OR4N2 (11742367_at) / Fold change /veh OR4N2 (11742367_at) / RFU PRRT2 (11749266_a_at) / Fold change /veh PRRT2 (11749266_a_at) / RFU SNX32 (11753110_a_at) / Fold change /veh SNX32 (11753110_a_at) / RFU CDHR5 (11726645_a_at) / Fold change /veh CDHR5 (11726645_a_at) / RFU RCAN1 (11760418_a_at) / Fold change /veh RCAN1 (11760418_a_at) / RFU FAM167A (11723789_a_at) / Fold change /veh FAM167A (11723789_a_at) / RFU FAM26E (11764081_at) / Fold change /veh FAM26E (11764081_at) / RFU ISYNA1 (11749810_s_at) / Fold change /veh ISYNA1 (11749810_s_at) / RFU ACY1 (11761880_at) / Fold change /veh ACY1 (11761880_at) / RFU 11764098_at / Fold change /veh 11764098_at / RFU SAMD14 (11745864_x_at) / Fold change /veh SAMD14 (11745864_x_at) / RFU NPB (11741838_a_at) / Fold change /veh NPB (11741838_a_at) / RFU TMPRSS6 (11731388_a_at) / Fold change /veh TMPRSS6 (11731388_a_at) / RFU KRTAP10-2 (11738614_at) / Fold change /veh KRTAP10-2 (11738614_at) / RFU ARHGAP8 /// PRR5-ARHGAP8 (11727945_x_at) / Fold change /veh ARHGAP8 /// PRR5-ARHGAP8 (11727945_x_at) / RFU KRTAP5-7 /// NADSYN1 (11734609_at) / Fold change /veh KRTAP5-7 /// NADSYN1 (11734609_at) / RFU RASL12 (11751679_a_at) / Fold change /veh RASL12 (11751679_a_at) / RFU CDKN2B (11736163_a_at) / Fold change /veh CDKN2B (11736163_a_at) / RFU PRF1 (11729649_at) / Fold change /veh PRF1 (11729649_at) / RFU, ZNF638 /// ZNF638-IT1 / Fold change vs veh, ZNF638 /// ZNF638-IT1 / RFU, PANK3 / Fold change vs veh, PANK3 / RFU, SH3YL1 / Fold change vs veh, SH3YL1 / RFU, ZEB2 / Fold change vs veh, ZEB2 / RFU, NRIP1 / Fold change vs veh, NRIP1 / RFU, PTTG1IP / Fold change vs veh, PTTG1IP / RFU, CAPN2 / Fold change vs veh, CAPN2 / RFU, MED14 / Fold change vs veh, MED14 / RFU, SNORA58 / Fold change vs veh, SNORA58 / RFU, C1orf63 / Fold change vs veh, C1orf63 / RFU, LRRFIP1 / Fold change vs veh, LRRFIP1 / RFU, NDUFAF7 / Fold change vs veh, NDUFAF7 / RFU, SLC12A2 / Fold change vs veh, SLC12A2 / RFU, IBTK / Fold change vs veh, IBTK / RFU, ESF1 / Fold change vs veh, ESF1 / Fold change vs veh, TMEM50B / RFU, TAOK1 / Fold change vs veh, TAOK1 / RFU, ACBD3 / Fold change vs veh, ACBD3 / RFU, TMA16 / Fold change vs veh, TMA16 / RFU, RWDD3 / Fold change vs veh, RWDD3 / RFU, BCAT1 / Fold change vs veh, BCAT1 / RFU, EDEM3 / Fold change vs veh, EDEM3 / RFU, TMEM33 / Fold change vs veh, TMEM33 / RFU, WDR75 / Fold change vs veh, WDR75 / RFU, AHCTF1 / Fold change vs veh, AHCTF1 / RFU, TFRC / Fold change vs veh, TFRC / RFU, ZDHHC17 / Fold change vs veh, ZDHHC17 / RFU, NOM1 / Fold change vs veh, NOM1 / RFU, ARL8B / Fold change vs veh, ARL8B / RFU, ZBTB11 / Fold change vs veh, ZBTB11 / RFU, TAMM41 / Fold change vs veh, TAMM41 / RFU, KIAA1704 /// LOC100996395 / Fold change vs veh, KIAA1704 /// LOC100996395 / RFU, ING1 / Fold change vs veh, ING1 / RFU, TRMT61B / Fold change vs veh, TRMT61B / RFU, FUBP3 / Fold change vs veh, FUBP3 / RFU, TP53 / Fold change vs veh, TP53 / RFU, TNKS2 / Fold change vs veh, TNKS2 / RFU, ZFP14 / Fold change vs veh, ZFP14 / RFU, ACTR2 / Fold change vs veh, ACTR2 / RFU, PPP3R1 / Fold change vs veh, PPP3R1 / RFU, PIK3R1 / Fold change vs veh, PIK3R1 / RFU, HNRNPA1 / Fold change vs veh, HNRNPA1 / RFU, RNF170 / Fold change vs veh, RNF170 / RFU, ZNF28 / Fold change vs veh, ZNF28 / RFU, RNGTT / Fold change vs veh, RNGTT / RFU, OGT / Fold change vs veh, OGT / RFU, BRD1 / Fold change vs veh, BRD1 / RFU, MARS / Fold change vs veh, MARS / RFU, ZNF655 / Fold change vs veh, ZNF655 / RFU, FAHD1 / Fold change vs veh, FAHD1 / RFU, BDP1 / Fold change vs veh, BDP1 / RFU, LRRCC1 / Fold change vs veh, LRRCC1 / RFU, ARID1A / Fold change vs veh, ARID1A / RFU, ZNF146 / Fold change vs veh, ZNF146 / RFU, ZNF330 / Fold change vs veh, ZNF330 / RFU, GPN3 / Fold change vs veh, GPN3 / RFU, C9orf123 / Fold change vs veh, C9orf123 / RFU, N4BP2L2 / Fold change vs veh, N4BP2L2 / RFU, ARFIP1 / Fold change vs veh, ARFIP1 / RFU, FAM179B / Fold change vs veh, FAM179B / RFU, BCL10 / Fold change vs veh, BCL10 / RFU, UHRF1BP1L / Fold change vs veh, UHRF1BP1L / RFU, BET1 / Fold change vs veh, BET1 / RFU, CNOT2 / Fold change vs veh, CNOT2 / RFU, ZNF268 / Fold change vs veh, ZNF268 / Fold change vs veh, ZNF507 / RFU, DGCR2 / Fold change vs veh, DGCR2 / RFU, WDSUB1 / Fold change vs veh, WDSUB1 / Fold change vs veh, HSP90B1 /// MIR3652 / RFU, ADSS / Fold change vs veh, ADSS / RFU, GK / Fold change vs veh, GK / RFU, ZNF148 / Fold change vs veh, ZNF148 / RFU, TAF9 / Fold change vs veh, TAF9 / RFU, SLC1A5 / Fold change vs veh, SLC1A5 / RFU, SLMO2 / Fold change vs veh, SLMO2 / RFU, ABCC4 / Fold change vs veh, ABCC4 / RFU, LOC101060439 /// RAP1B / Fold change vs veh, LOC101060439 /// RAP1B / RFU, RFX7 / Fold change vs veh, RFX7 / RFU, GTPBP10 / Fold change vs veh, GTPBP10 / RFU, CNEP1R1 / Fold change vs veh, CNEP1R1 / RFU, BIVM-ERCC5 /// ERCC5 / Fold change vs veh, BIVM-ERCC5 /// ERCC5 / RFU, ILF3 / Fold change vs veh, ILF3 / RFU 11762660_at / Fold change /veh 11762660_at / RFU VCAN (11757783_s_at) / Fold change /veh VCAN (11757783_s_at) / RFU DDX43 (11728927_at) / Fold change /veh DDX43 (11728927_at) / RFU KRT8 (11758188_x_at) / Fold change /veh KRT8 (11758188_x_at) / RFU NKD1 (11759106_at) / Fold change /veh NKD1 (11759106_at) / RFU SRD5A1 (11742802_a_at) / Fold change /veh SRD5A1 (11742802_a_at) / RFU TPSAB1 /// TPSB2 (11721975_s_at) / Fold change /veh TPSAB1 /// TPSB2 (11721975_s_at) / RFU GSTM3 (11746129_a_at) / Fold change /veh GSTM3 (11746129_a_at) / RFU IL23R (11737362_x_at) / Fold change /veh IL23R (11737362_x_at) / RFU TMEM51 (11727254_a_at) / Fold change /veh TMEM51 (11727254_a_at) / RFU PIWIL2 (11732686_x_at) / Fold change /veh PIWIL2 (11732686_x_at) / RFU ORM1 (11744905_x_at) / Fold change /veh ORM1 (11744905_x_at) / RFU CCDC152 (11743942_at) / Fold change /veh CCDC152 (11743942_at) / RFU ECM1 (11717891_a_at) / Fold change /veh ECM1 (11717891_a_at) / RFU IL23R (11748794_a_at) / Fold change /veh IL23R (11748794_a_at) / RFU TNFAIP8L3 (11732012_x_at) / Fold change /veh TNFAIP8L3 (11732012_x_at) / RFU MBOAT4 (11741988_at) / Fold change /veh MBOAT4 (11741988_at) / RFU 11764193_at / Fold change /veh 11764193_at / RFU TMEM53 (11763286_at) / Fold change /veh TMEM53 (11763286_at) / RFU MAGEB2 (11727129_at) / Fold change /veh MAGEB2 (11727129_at) / RFU TMEM200A (11744735_a_at) / Fold change /veh TMEM200A (11744735_a_at) / RFU CCDC152 (11751479_a_at) / Fold change /veh CCDC152 (11751479_a_at) / RFU FAM211A (11726209_a_at) / Fold change /veh FAM211A (11726209_a_at) / RFU RGS16 (11746705_a_at) / Fold change /veh RGS16 (11746705_a_at) / RFU VCAN (11755009_s_at) / Fold change /veh VCAN (11755009_s_at) / RFU RHOB (11743442_s_at) / Fold change /veh RHOB (11743442_s_at) / RFU RGS16 (11720943_a_at) / Fold change /veh RGS16 (11720943_a_at) / RFU RGS16 (11720944_at) / Fold change /veh RGS16 (11720944_at) / RFU, VPS4B / Fold change vs veh, VPS4B / RFU, CREB1 / Fold change vs veh, CREB1 / RFU, DNAJC13 / Fold change vs veh, DNAJC13 / RFU, GNAQ / Fold change vs veh, GNAQ / RFU, CDK5R1 / Fold change vs veh, CDK5R1 / RFU, ZRANB3 / Fold change vs veh, ZRANB3 / RFU, CUL4A / Fold change vs veh, CUL4A / RFU, CCNY / Fold change vs veh, CCNY / RFU, UFL1 / Fold change vs veh, UFL1 / RFU, COG3 / Fold change vs veh, COG3 / RFU, DIAPH2 / Fold change vs veh, DIAPH2 / RFU, SKA2 / Fold change vs veh, SKA2 / RFU, AFF3 / Fold change vs veh, AFF3 / RFU, LMF1 / Fold change vs veh, LMF1 / RFU, IPO11 / Fold change vs veh, IPO11 / RFU, DFFB / Fold change vs veh, DFFB / RFU, FOXP1 / Fold change vs veh, FOXP1 / RFU, CARD8 / Fold change vs veh, CARD8 / RFU, STRN3 / Fold change vs veh, STRN3 / RFU, ADK / Fold change vs veh, ADK / RFU, RASSF2 / Fold change vs veh, RASSF2 / RFU, WIPF1 / Fold change vs veh, WIPF1 / RFU, LARP1B / Fold change vs veh, LARP1B / RFU, RASA1 / Fold change vs veh, RASA1 / RFU, RB1 / Fold change vs veh, RB1 / RFU, PPFIA1 / Fold change vs veh, PPFIA1 / RFU, MAT2A / Fold change vs veh, MAT2A / RFU, CCT5 / Fold change vs veh, CCT5 / RFU, WDR92 / Fold change vs veh, WDR92 / RFU, CUX1 / Fold change vs veh, CUX1 / RFU, TTC7A / Fold change vs veh, TTC7A / RFU, TMEM135 / Fold change vs veh, TMEM135 / RFU, DEPTOR / Fold change vs veh, DEPTOR / RFU, CPM / Fold change vs veh, CPM / RFU, DNAJB6 / Fold change vs veh, DNAJB6 / RFU, CACNA2D3 / Fold change vs veh, CACNA2D3 / RFU, DTX4 / Fold change vs veh, DTX4 / RFU, TFCP2 / Fold change vs veh, TFCP2 / RFU, GMCL1 /// GMCL1P1 / Fold change vs veh, GMCL1 /// GMCL1P1 / RFU, AEBP2 / Fold change vs veh, AEBP2 / RFU, SNHG1 /// SNORD22 /// SNORD25 /// SNORD26 /// SNORD27 /// SNORD28 /// SNORD29 /// SNORD31 / Fold change vs veh, SNHG1 /// SNORD22 /// SNORD25 /// SNORD26 /// SNORD27 /// SNORD28 /// SNORD29 /// SNORD31 / Fold change (Aza/veh), C12orf56 (ProbeSet 11735607_a_at) / Fold change (ACY-1035/veh), C12orf56 (ProbeSet 11735607_a_at) / Fold change (Aza/veh), FGFR1OP (ProbeSet 11751329_s_at) / Fold change (ACY-1035/veh), FGFR1OP (ProbeSet 11751329_s_at) / Fold change (Aza/veh), VPS36 (ProbeSet 11739960_a_at) / Fold change (ACY-1035/veh), VPS36 (ProbeSet 11739960_a_at) / RFU SYPL1 (11715823_x_at) / Fold change /veh SYPL1 (11715823_x_at) / RFU IGFBP7 (11715501_s_at) / Fold change /veh IGFBP7 (11715501_s_at) / RFU REEP3 (11722064_at) / Fold change /veh REEP3 (11722064_at) / RFU IGLL1 (11728026_x_at) / Fold change /veh IGLL1 (11728026_x_at): dose or concentration left out as unconfirmed
Conditions: ProbeSet 11755436_x_at; LIST B

For Nc1ncn([C@@H]2O[C@H](CO)[C@@H](O)[C@H]2O)c(=O)n1 [azacitidine], the “Fold change vs veh, ARID1A” value was 1.10.
